Reference: ChEMBL document CHEMBL4673190, “Recent developments in anticancer kinase inhibitors based on the pyrazolo[3,4-d]pyrimidine scaffold” (RSC Med Chem, 2020)

Columns and labels:
Homo sapiens [1] = species on record: Homo sapiens; assay: Selectivity index, ratio of IC50 for human JAK1 expressed in baculovirus expression system to IC50 for human JAK3 expressed in baculovirus expression system
Homo sapiens [2] = species on record: Homo sapiens; assay: Selectivity index, ratio of IC50 for human JAK2 expressed in baculovirus expression system to IC50 for human JAK3 expressed in baculovirus expression system
HepG2 = assay: Cytotoxicity against human HepG2 cells incubated for 72 hrs by MTT assay; assay type: functional, cell-based; details: HepG2, 72 h
MCF7 = assay: Cytotoxicity against human MCF-7 cells incubated for 72 hrs by MTT assay; assay type: functional, cell-based; details: MCF7, 72 h
A549 = assay: Cytotoxicity against human A549 cells incubated for 72 hrs by MTT assay; assay type: functional, cell-based; details: A549, 72 h
[3] = target: Cyclin-dependent kinase 2/cyclin E1 (Homo sapiens, UniProt P24941); assay: Inhibition of CDK2/cyclin E (unknown origin) expressed in baculovirus infected Sf21 insect cells using histone H1 as substrate in presence of [gamma33P]ATP
[4] = target: T1, Tyrosine-protein kinase JAK3 (Homo sapiens, UniProt P52333); assay: Inhibition of JAK3 (unknown origin)
T1 sequence (P52333 whole entry): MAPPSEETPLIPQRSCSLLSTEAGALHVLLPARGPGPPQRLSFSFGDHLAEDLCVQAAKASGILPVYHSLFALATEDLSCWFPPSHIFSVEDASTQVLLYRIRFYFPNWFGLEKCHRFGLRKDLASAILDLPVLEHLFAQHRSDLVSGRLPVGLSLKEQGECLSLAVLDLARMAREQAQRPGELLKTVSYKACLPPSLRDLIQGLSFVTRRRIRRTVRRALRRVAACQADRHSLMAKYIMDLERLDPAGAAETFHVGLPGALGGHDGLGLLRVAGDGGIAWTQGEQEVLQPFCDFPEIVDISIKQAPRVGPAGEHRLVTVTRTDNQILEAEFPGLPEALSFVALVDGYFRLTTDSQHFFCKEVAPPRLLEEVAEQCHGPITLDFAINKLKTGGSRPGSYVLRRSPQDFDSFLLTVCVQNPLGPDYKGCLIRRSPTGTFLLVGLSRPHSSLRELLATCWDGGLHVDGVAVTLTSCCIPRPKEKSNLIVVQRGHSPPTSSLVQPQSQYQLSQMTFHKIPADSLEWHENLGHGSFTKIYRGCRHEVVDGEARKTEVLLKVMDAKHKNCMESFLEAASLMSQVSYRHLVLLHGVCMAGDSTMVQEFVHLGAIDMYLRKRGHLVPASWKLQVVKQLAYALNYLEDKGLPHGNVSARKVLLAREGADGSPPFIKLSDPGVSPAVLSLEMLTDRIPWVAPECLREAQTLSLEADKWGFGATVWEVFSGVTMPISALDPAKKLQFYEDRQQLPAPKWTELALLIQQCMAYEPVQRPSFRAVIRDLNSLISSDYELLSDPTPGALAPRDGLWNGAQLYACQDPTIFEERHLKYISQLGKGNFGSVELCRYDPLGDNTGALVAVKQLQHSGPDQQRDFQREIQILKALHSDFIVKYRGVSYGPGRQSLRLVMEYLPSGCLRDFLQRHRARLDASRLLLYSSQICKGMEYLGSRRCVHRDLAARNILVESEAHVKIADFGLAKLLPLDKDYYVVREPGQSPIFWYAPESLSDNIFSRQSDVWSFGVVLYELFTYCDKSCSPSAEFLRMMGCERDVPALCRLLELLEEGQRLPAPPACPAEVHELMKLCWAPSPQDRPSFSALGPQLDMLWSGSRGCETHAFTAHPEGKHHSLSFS

[5] = target: Vascular endothelial growth factor receptor 2 (Homo sapiens, UniProt P35968); assay: Inhibition of N-terminal GST-tagged human VEGFR2 (805 to 1356 residues) expressed in a baculovirus infected Sf9 insect cell incubated for 45 mins by Kinase-Glo max reagent-based luminescence assay
Sequence of Vascular endothelial growth factor receptor 2 (P35968 whole entry, the tested form may be a part): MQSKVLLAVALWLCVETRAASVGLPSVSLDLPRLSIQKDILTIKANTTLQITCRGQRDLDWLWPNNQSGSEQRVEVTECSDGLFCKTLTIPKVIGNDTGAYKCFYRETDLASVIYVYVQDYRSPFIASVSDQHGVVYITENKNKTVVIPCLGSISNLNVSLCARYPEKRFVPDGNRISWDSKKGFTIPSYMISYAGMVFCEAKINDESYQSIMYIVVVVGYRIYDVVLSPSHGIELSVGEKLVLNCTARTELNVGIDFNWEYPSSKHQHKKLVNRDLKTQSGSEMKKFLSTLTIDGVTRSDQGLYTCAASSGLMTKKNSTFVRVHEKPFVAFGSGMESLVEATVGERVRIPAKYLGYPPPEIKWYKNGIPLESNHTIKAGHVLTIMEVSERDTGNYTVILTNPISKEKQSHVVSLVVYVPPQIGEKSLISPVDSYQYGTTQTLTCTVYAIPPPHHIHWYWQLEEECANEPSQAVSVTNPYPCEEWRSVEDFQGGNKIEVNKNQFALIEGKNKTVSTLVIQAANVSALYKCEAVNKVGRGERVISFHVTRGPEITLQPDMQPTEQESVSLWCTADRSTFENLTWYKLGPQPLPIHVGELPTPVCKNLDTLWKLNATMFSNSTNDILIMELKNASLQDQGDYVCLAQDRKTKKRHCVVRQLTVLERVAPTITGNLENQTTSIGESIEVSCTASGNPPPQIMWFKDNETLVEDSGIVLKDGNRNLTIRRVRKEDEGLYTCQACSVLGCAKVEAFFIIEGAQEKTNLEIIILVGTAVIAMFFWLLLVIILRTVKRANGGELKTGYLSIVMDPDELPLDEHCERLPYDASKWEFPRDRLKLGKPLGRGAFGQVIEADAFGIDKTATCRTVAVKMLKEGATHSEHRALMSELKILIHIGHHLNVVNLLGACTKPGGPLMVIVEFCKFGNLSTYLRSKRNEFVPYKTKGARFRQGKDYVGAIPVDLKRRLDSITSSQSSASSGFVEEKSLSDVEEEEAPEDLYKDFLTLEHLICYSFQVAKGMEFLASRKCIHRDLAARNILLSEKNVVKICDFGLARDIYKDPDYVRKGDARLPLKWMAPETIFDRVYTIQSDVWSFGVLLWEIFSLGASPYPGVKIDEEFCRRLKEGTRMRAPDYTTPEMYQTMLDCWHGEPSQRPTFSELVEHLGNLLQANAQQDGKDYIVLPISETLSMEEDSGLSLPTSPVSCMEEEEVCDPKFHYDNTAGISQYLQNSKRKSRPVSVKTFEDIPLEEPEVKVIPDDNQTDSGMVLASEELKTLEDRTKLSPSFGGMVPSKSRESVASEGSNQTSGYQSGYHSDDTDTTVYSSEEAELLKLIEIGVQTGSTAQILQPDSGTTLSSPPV

For `C=CC(=O)Nc1cccc(Cn2ncc3cnc(Nc4cnn(CCOC)c4)nc32)c1`, the Ratio IC50 (Homo sapiens [1]) was > 376 and the Ratio IC50 (Homo sapiens [2]) was > 376.

For `Cc1c(C(=O)Nc2ccc(Oc3ncnc4c3cnn4C)c(F)c2)nnn1-c1ccc(F)cc1`, the EC50 (HepG2) was ≤ 10 µM, the EC50 (MCF7) was ≤ 10 µM and the EC50 (A549) was ≤ 10 µM.

In the case of `O=[N+]([O-])c1cccc(Nc2nc(SCCc3ccccc3)nc3[nH]ncc23)c1`, the IC50 [3] is reported as 5.1 µM.

`C[C@@H]1CCN(C(=O)CC#N)C[C@@H]1N(C)c1ncnc2[nH]ncc12` was tested, and the IC50 [4] was 1.6 nM.

Compound `O=C(Oc1nc(SCCc2ccccc2)nc2[nH]ncc12)c1cc2ccccc2o1` has an IC50 [3] of 6.8 µM.

Work on `COc1ccc(-n2nc(C)c3c(Nc4ccc(NC(=O)Nc5ccc(Cl)c(C(F)(F)F)c5)cc4)ncnc32)cc1` yielded an IC50 [5] of 220 nM.
